In patent publication US20230105108A1, “COMPOUNDS FOR THE TREATMENT OF BACTERIAL INFECTIONS AND POTENTIATION OF ANTIBIOTICS” (GEORGIA STATE UNIVERSITY RESEARCH FOUNDATION, INC., priority 2019, published 2023):
Converted amounts (≈) assume the structure as drawn. Counter-ions that a name gives are not always drawn. Like-named read-outs stand apart in the source and are kept apart here.

Assays:
[1] = Cytotoxicity on mammalian cells (CCK-8), NIH3T3; assay type: cell-based; conditions: mouse, NIH3T3 cells, 3T3 cell line
Experimental: (§1) Cytotoxicity test of bacterial sensitizers on mammalian cells. Cell viability was assessed by using Cell Counting Kit-8 (CCK-8, Dojindo, Japan). HEK293 or NIH3T3 cells were seeded in a 96-well plate one day before the experiment to reach 80% confluency. Cells were then incubated with various concentration of bacterial sensitizers at 37° C. with 5% CO2 for 24 h, then 10 μL of CCK-8 solution was added to each well, and the plate was incubated for an additional at 37° C. 2 h with 5% CO2. The optical density at 450 nm was recorded by plate reader; and the results were calculated as a percentage of viability compared with the untreated control.

B. subtilis = experiment: MIC determination and sensitization fold on B. subtilis; assay type: cell-based; conditions: B. subtilis; for Sensitization fold: erythromycin; for MIC: Bacillus subtilis, 24 h, compound alone, read-out: MIC
E. coli (ATCC 25922) = experiment: MIC determination, sensitization fold and FIC index on E. coli; assay type: cell-based; conditions: for MIC: Escherichia coli; for Sensitization: compound up to 25 μM; for MIC of AB with MD-124: MD-124 concentration 5 μg/ml
Experimental: (§2) Bacteria culture and MICs determination: Gram-negative bacteria were cultured in Mueller Hinton II cation-adjusted broth. Gram-positive bacteria were cultured in LB broth. Mycobacterium smegmatis was cultured in Middlebrook 7H9 Broth. MICs of antibiotics itself were determined by performing two-fold serial dilutions of antibiotics. MICs of antibiotics in the presence of bacterial sensitizers were determined by performing two-fold serial dilutions of antibiotics with or without a constant concentration of bacterial sensitizers. The MICs tests were performed on 96-well plates with a final volume of 200 μl Mueller Hinton II cation-adjusted broth in each well. Each well was inoculated with 5×10^5 CFU/ml bacteria and was incubated for 24 h at 37° C. with continuous shaking of 200 rpm. The bacterial density was then determined by OD600. Bacterial growth %=OD600 of antibiotic treatment group/OD600 of antibiotic non-treatment group. MICs was determined as the concentrations that inhibit more than 90% of bacteria growth.
(§3) Sensitization fold determination and FIC index calculations: Sensitization fold=MIC of antibiotic only/MIC of antibiotic with bacterial sensitizer. […] Since the MICs were determined by performing two-fold serial dilutions of antibiotic, so the sensitization fold can is the times of 2.
FIC index between compound a and b was calculated according to the formula below: […]
FIC≤0.5: Synergy; FIC between 0.5 and 1: Additive; FIC between 1 and […]: no interaction; FIC >4: antagonism.
(§4) Bacteria strains (as indicated in Table 5B) were cultured with rifampicin at various concentrations in the presence or absence of 10 μM of the indicated compound for 20 h at 37° C. The MIC, sensitization, cytotoxicity, and MIC on mycobacteria were tested according to methods described herein. […] The sensitization activities of compounds on MRSA were tested using rifampicin. The sensitization activities of compounds on E. coli were tested using rifampicin.

HEK293 cells = experiment: Cytotoxicity on mammalian cells (CCK-8), HEK293; assay type: cell-based; conditions: HEK293 cell line; 24 h
Experimental: as §1

MRSA (ATCC 33592) = experiment: MIC determination and sensitization fold on MRSA; assay type: cell-based, methicillin-resistant Staphylococcus aureus; conditions: MRSA; rifampicin; compound at 12.5 μM
Experimental: Bacteria strains: E. coli (ATCC 25922), A. baumannii (ATCC 17978), K. pneumoniae (43816), S. maltophilia (ATCC 31559), S. typhimurium (ATCC 14028), C. werkmanii (ATCC 51114), S. aureus (ATCC 12600) and methicillin-resistant Staphylococcus aureus (MRSA, ATCC 33592) strains were purchased from ATCC. NR698 was provided.
as §2, §3, §4

[2] = Cytotoxicity on mammalian cells (CCK-8), HEK293; assay type: cell-based; conditions: human, HEK293 cells; HEK293 cell line; 24 h
Experimental: as §1

[3] = Cytotoxicity in H9c2 cells (CCK-8); assay type: cell-based; conditions: rat, H9c2 cells; H9c2 cell line
Experimental: The cytotoxicity in H9c2 (ATCC®CRL-1446™) cells was also determined. The H9c2 cells were maintained in DMEM (Dulbecco's Modified Eagle's Medium) supplemented with 10% fetal bovine serum (MidSci; S01520HI) and 1% penicillin-streptomycin (Sigma-Aldrich; P4333) at 37° C. with 5% CO2. The H9c2 cells were seeded in 96-well plate one day before the experiment. Different concentrations of di-amidine compounds were added into the H9c2 cells. The cells were then incubated with the compounds for 24 hours at 37° C. with 5% CO2. The cell viability was tested by the CCK-8. Specifically, after 24 hour incubation, 10 μL CCK-8 was added to each well. After 3 hours incubation at 37° C., the absorbance at 450 nm was recorded by a plate reader.

[4] = system: NDM-1 expressing E. coli strain; experiment: microbe, parasite or virus in culture; assay type: cell-based
[5] = system: A. baumannii (ATCC 17978); experiment: MIC, sensitization fold and FIC index on A. baumannii; assay type: cell-based; conditions: A. baumannii towards the antibiotic
[6] = ATCC25922, 24 h, E. coli, compound alone, read-out: MIC
[7] = E. coli towards the antibiotic, MD-124 5 μg/ml
[8] = ATCC25922, 24 h, E. coli (wild type), antibiotic alone, read-out: MIC of AB only

SMILES	CC50 at 24 h [1] [µM]	Sensitization fold (B. subtilis; compound at 12 μM)	MIC (B. subtilis) [µM]	MIC (E. coli (ATCC 25922); [6]) [µM]	CC50 at 24 h [2] [µM]	Sensitization fold (E. coli (ATCC 25922); [7]) [fold]	MIC of AB with MD-124 (E. coli (ATCC 25922); E. coli) [µg/mL]	MIC (E. coli (ATCC 25922); [8]) [µg/mL]	Sensitization fold with 5 μg/ml MD-124 [5] [fold]	further results
COc1cc(C(=N)N)ccc1OCc1cc(COc2ccc(C(=N)N)cc2OC)cc(C(C)(C)C)c1 [MD-114, 1,3-Bis {[4-amidino-2-methoxy)-phenoxymethyl]}-5-(tert-butyl)benzene dihydrochloride]	50	8-fold at 12 μM	25	100	–	–	–	–	–	Sensitization fold (E. coli (ATCC 25922); E. coli, rifampicin, compound at 12.5 μM): 8-fold at 12.5 μM; CC50 (HEK293 cells): 100 µM
Cc1cc(COc2cccc(C(=N)N)c2)cc(COc2cccc(C(=N)N)c2)c1 [MD-116, 3,3′-(((5-methyl-1,3-phenylene)bis(methylene))bis(oxy))dibenzimidamide dihydrochloride]	> 100	32-fold at 12 μM	–	–	> 100	–	–	–	–	Sensitization fold (MRSA (ATCC 33592)): 4-fold at 12.5 μM.; Sensitization fold (E. coli (ATCC 25922); E. coli, rifampicin, compound at 25 μM): 8-fold at 25 μM; MIC (E. coli (ATCC 25922); ATCC25922, 24 h): 100 µM
Cc1cc(CSc2ccc(C3=NCCN3)cc2)cc(CSc2ccc(C3=NCCN3)cc2)c1 [MD-118, 1,3-Bis {(4-(2-imidazolino))-thiophenoxymethyl}-5-methylbenzene dihydrochloride]	12.5	–	> 25	> 50	25	–	–	–	–	Sensitization fold (B. subtilis; compound at 3 μM): 4-fold at 3 μM; Sensitization fold (B. subtilis; compound at 6 μM): 16-fold at 6 μM,; Sensitization (E. coli (ATCC 25922); E. coli, rifampicin): No effect up to 25 μM.
Cc1cc(COc2ccc(C3=NCCN3)cc2)cc(COc2ccc(C3=NCCN3)cc2)c1 [MD-129, 1,3-Bis {(4-(2-imidazolino))-phenoxymethyl}-5-methylbenzene dihydrochloride]	25	4-fold at 12 μM	> 50	> 50	50	–	–	–	–	CC50 at 24 h [3]: 25 µM; Sensitization fold (E. coli (ATCC 25922); 10 μM compound, rifampicin as the antibiotic (Table 6)): 1 fold; Sensitization (E. coli (ATCC 25922); E. coli, rifampicin): No effect up to 25 μM; sensitization activity (E. coli (ATCC 25922); rifampicin, compound at up to 10 μM): no sensitization activity
C[C@@H](O)[C@H]1C(=O)N2C(C(=O)O)=C(S[C@@H]3CN[C@H](C(=O)N(C)C)C3)[C@H](C)[C@H]12 [Meropenem, reference compound]	–	–	–	–	–	1	0.063	0.063	–	MIC (E. coli (ATCC 25922); ATCC25922, antibiotic alone (Table 14), read-out: MIC on wild-type E.coli): 0.03 µg/mL; MIC ([4]; Escherichia coli, antibiotic alone (Table 14), read-out: MIC on NDM-1 over-expression E. coli): 12.5 µg/mL (≈ 32.6 µM); Sensitization fold with 5 μg/ml MD-124 ([4]; NDM-1 expressing E. coli towards the antibiotic): 2 fold
CCOc1ccc2ccccc2c1C(=O)N[C@@H]1C(=O)N2[C@@H]1SC(C)(C)[C@@H]2C(=O)O [Nafcillin, reference compound]	–	–	–	–	–	>4	75	> 300	2	–
CN(C)[C@@H]1C(O)=C(C(N)=O)C(=O)[C@@]2(O)C(O)=C3C(=O)c4c(O)cccc4[C@@](C)(O)[C@H]3C[C@@H]12 [Tetracycline, reference compound]	–	–	–	–	–	2	0.6	1.2	2	Sensitization fold with 5 μg/ml MD-124 [4]: 4 fold
COc1cc(Cc2cnc(N)nc2N)cc(OC)c1OC [Trimethoprim, reference compound]	–	–	–	–	–	2	1.25	2.5	2	–
